The text below walks through data of US11219625B2, “Inhibitors of N-linked glycosylation and methods using same” (YALE UNIVERSITY, priority 2015, dated 2022).

What all share (format): cell-based
One assay has as its system PC9 cells. As to the kind of experiment: Cell cycle distribution by flow cytometry, PC9. The note with it: PC9, NGI-1 24 h; control 65%; p<0.01. As for the experimental part: FIGS. 5A-5G illustrate NGI-1 induces G1 arrest and senescence in EGFR addicted tumor cells. FIG. 5A illustrates cell cycle distribution of PC9 cells after 24 h NGI-1 treatment for 24 h determined by flow cytometry. […] FIG. 5B illustrates cell cycle distribution of A549 cells after 24 h NGI-1 treatment for 24 h determined by flow cytometry. FIG. 5C illustrates western blot time course of cyclin D1 expression in PC9 and A549 cells after NGI-1 treatment. FIG. 5D illustrates quantitative real-time PCR analysis of PC9 and A549 cells. A time course of cyclin D1 expression levels relative to GAPDH is represented. […] FIG. 5F illustrates senescence of PC9 cells explored by: cell autofluorescence, measured by flow cytometry using a detector for PE/YFP; lipofuscin accumulation, detected by confocal laser scanning microscopy using an excitation laser of 405 nm with acquired signals from spectrums of yellow 575-620 nm; and morphology changes, enlarged vs. flattened. […] Significance was calculated using a T test (*p<0.05. **p<0.01). FIG. 5G illustrates senescence of A549 cells explored by: cell autofluorescence, measured by flow cytometry using a detector for PE/YFP; lipofuscin accumulation, detected by confocal laser scanning microscopy using an excitation laser of 405 nm with acquired signals from spectrums of yellow 575-620 nm; and morphology changes, enlarged vs. flattened. […]

For assay [1], the system named is lipid linked oligosaccharides (LLOs). Nature of the assay: FACE analysis of lipid linked oligosaccharides. The note with it: p<0.01. As for the experimental part:
Fluorophore assisted carbohydrate electrophoresis (FACE) was performed as previously described (Gao, et al., Glycobiology 2002, 12, 353-360; Gao, et al., J Biol Chem 2005, 280, 17901-17909). Control (Ac-Gln-Tyr-Thr-CONH2) and acceptor (Ac-Asn-Tyr-Thr-CONH2) peptides were used for permeabilized cell experiments. Metabolic labeling of Hela cells, transfection of prosaposin (pSAP) and steroid hormone binding globulin (SHBG) vectors, and knockdown of SIT3A and STT3B to monitor N-linked glycosylation knockdown were performed as described (Shrimal, et al., J Cell Biol 2013, 201, 81-95). Western blot analysis was performed as previously described (Bennett, et al., Transl Oncol 2013, 6, 382-391). The following primary antibodies were used: rabbit anti-EGFR (sc-03; Santa Cruz Biotechnology; 1:1000), rabbit anti-phospho (Tyr1173) EGF Receptor (Cell Signaling; 1:1000), rabbit anti-p21 Waf1/Cip1 (12D1; Cell Signaling; 1:1000), rabbit anti-Cyclin D1 (Cell Signaling; 1:1000), mouse anti-β-Actin (8H10D10; Cell Signaling; 1:1000). For phospho-protein array analysis, PC9 and A549 cells were cultured in 6-well plates in serum-containing medium and treated with or without 10 μM NGI-1 for 24 hours. […]

For the next assay, the system named is OST. Nature of the assay: Free and peptide glycans in streptolysin-O permeabilized CHO cells. Particulars: NGI-1 5 μM. The method, then: Fluorophore assisted carbohydrate electrophoresis (FACE) was performed as previously described (Gao, et al., Glycobiology 2002, 12, 353-360; Gao, et al., J Biol Chem 2005, 280, 17901-17909). Control (Ac-Gln-Tyr-Thr-CONH2) and acceptor (Ac-Asn-Tyr-Thr-CONH2) peptides were used for permeabilized cell experiments. Metabolic labeling of Hela cells, transfection of prosaposin (pSAP) and steroid hormone binding globulin (SHBG) vectors, and knockdown of SIT3A and STT3B to monitor N-linked glycosylation knockdown were performed as described (Shrimal, et al., J Cell Biol 2013, 201, 81-95). Western blot analysis was performed as previously described (Bennett, et al., Transl Oncol 2013, 6, 382-391). […]
The OST is an ER resident multi-subunit complex that cleaves LLOs and transfers the oligosaccharide to a protein encoded N-linked glycosylation consensus sequence (NXT/S). […] Both enzymatic products of the OST, free glycans and protein glycans, were therefore determined with and without NGI-1 treatment using optimized conditions in streptolysin-O permeabilized CHO cells (FIG. 2C). Addition of a control peptide without the N-linked glycosylation consensus sequence (QYT) led to readily detectable levels of free glycans (left panel), while addition of an acceptor peptide containing the consensus sequence (NYT) followed by PNGase treatment led to detection of cleaved peptide glycans (right panel). […]

The next assay relates to H3255 cells. As to the kind of experiment: Cell cycle distribution by flow cytometry, H3255. Particulars: H3255, NGI-1 24 h, p<0.05. The method, then: FIGS. 7A-7D illustrate EGFR kinase domain mutant cell lines growth inhibition and cell cycle arrest response to NGI-1. FIG. 7A illustrates MTT assays to determine the effects of NGI-1 on growth of H3255 cells. FIG. 7B illustrates MIT assays to determine the effects of NGI-1 on growth of HCC827 cells. EGFR kinase domain mutant cell lines H3255 and HCC827 cells were untreated or treated with 10 μM NGI-1 for 5 d. […] FIG. 7C illustrates cell cycle distribution of H3255 after 24 h NGI-1 treatment for 24 h determined by flow cytometry. FIG. 7D illustrates cell cycle distribution of HCC827 after 24 h NGI-1 treatment for 24 h determined by flow cytometry.
For the assessment of cell cycle distribution, 1×10^6 cells were collected, washed once with ice-cold PBS and fixed in ice-cold 70% ethanol overnight at −20° C. Thereafter, cells were washed twice with PBS and incubated for 30 min at room temperature in 200 μL of Guava Cell Cycle Reagent (Guava Technologies). Cytofluorometric acquisitions were performed on a LSRII cytometer (BD Biosciences). First-line analysis was performed with Flow Jo software, upon gating on the events characterized by normal forward and side scatter parameters and discrimination of doublets in a FSC-A vs. FSC-H bivariate plot. Approximately 30,000 cells were analyzed per experiment, and the mean value was obtained from 3 independent assays.
In general terms: A flow cytometer gives signals particle by particle.

In the case of `Cc1cnc(NC(=O)c2cc(S(=O)(=O)N(C)C)ccc2N2CCCC2)s1` [NGI-1, 5-(N,N-Dimethylsulfamoyl)-N-(5-methylthiazol-2-yl)-2-(pyrrolidin-1-yl)benzamide], the “cells in G1” value in the assay with PC9 cells came to 90%. In addition, the “increase of Glc3Man9Glcnac2 LLO levels” value in assay [1] was 31%. For the same compound, in the assay with OST, the “production of free glycans and cleaved peptide glycans” value is “substantially reduced the production of both free and cleaved glycans”. Moreover, the cell cycle distribution entry in the assay with H3255 cells is listed as “undergo G1 arrest”.
